# Experimental data taken from ChEMBL document CHEMBL1201862, “PubChem BioAssay data set” (2004).
#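 All cell lines were grown in 96-well plates and treated with compound for 48 hours. GI50 is the concentration that inhibits growth by half.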 Calls of active or inactive are those of the source. Rule as the data show it: active = GI50 up to about 1.1 µM and inactive = higher. *1 amine or outer side, *2 acyl side, *3 side chain or, on linkers, in order; H or OH if unused. Where a SMILES comes first, the peptide text is derived from it. Bridges are numbered along the chain shown (N, C = ends). Roman numbers before positions name the chains, in order. [ ]: non-standard residue; d: D form. Actinocin(1to9) = Cc1c2oc3c(C)ccc(C(=O)[*:2])c3nc-2c(C(=O)[*:1])c(N)c1=O; NMeV = CN[CH](C(=O)O)C(C)C; Sar = CNCC(=O)O
# Columns and labels:
# Assay in all cases: DTP human tumour cell line panel, 48 h
# [1] = system: SF-268
# [2] = system: SF-539
# [3] = system: HT-29
# [4] = system: U-251
# [5] = system: KM12
# [6] = system: NCI-H226
# [7] = system: LOX IMVI
# [8] = system: MDA-MB-435
# [9] = system: HL-60
# [10] = system: IGROV-1
# [11] = system: HOP-92
# [12] = system: NCI-H460
# [13] = system: MDA-N
# [14] = system: SN12C
# [15] = system: BT-549
# [16] = system: M14
# [17] = system: SK-MEL-28
# [18] = system: UACC-62
# [19] = system: A498
SMILES,GI50 [1],GI50 [2],GI50 [3],GI50 [4],GI50 [5],GI50 [6],GI50 [7],GI50 [8],GI50 [9],GI50 [10],GI50 [11],GI50 [12],GI50 [13],GI50 [14],GI50 [15],GI50 [16],GI50 [17],GI50 [18],GI50 [19]
O=c1c2ccccc2[nH]c(=S)n1-c1ccc(/N=N/c2cccc3cc(O)ccc23)cc1,> 100 µM (inactive),> 100 µM (inactive),> 100 µM (inactive),54.6 µM (inactive),> 100 µM (inactive),> 100 µM (inactive),43.5 µM (inactive),> 100 µM (inactive),22.3 µM (inactive),64.9 µM (inactive),> 100 µM (inactive),> 100 µM (inactive),> 100 µM (inactive),> 100 µM (inactive),> 100 µM (inactive),> 100 µM (inactive),> 100 µM (inactive),49.2 µM (inactive),
CONC(C)=O,> 100 µM (inactive),> 100 µM (inactive),> 100 µM (inactive),> 100 µM (inactive),> 100 µM (inactive),> 100 µM (inactive),> 100 µM (inactive),> 100 µM (inactive),> 100 µM (inactive),> 100 µM (inactive),,> 100 µM (inactive),> 100 µM (inactive),> 100 µM (inactive),> 100 µM (inactive),> 100 µM (inactive),> 100 µM (inactive),> 100 µM (inactive),> 100 µM (inactive)
"COc1ccc(CC2NC(=O)C(NC(=O)c3c4nc5c(C(=O)NC6C(=O)NC(Cc7ccc(OC)cc7)C(=O)N7CCCC7C(=O)N(C)CC(=O)N(C)C(C(C)C)C(=O)OC6C)ccc(C)c5oc-4c(C)c(=O)c3N)C(C)OC(=O)C(C(C)C)N(C)C(=O)CN(C)C(=O)C3CCCN3C2=O)cc1 (stereo unspecified) (I: TY(Me)P[Sar][NMeV] / II: TY(Me)P[Sar][NMeV]; ester I:1-I:C, II:1-II:C; linker I:N-II:N via Actinocin(1to9); configuration not given here)",0.0219 µM (active),< 0.001 µM (active),< 0.001 µM (active),< 0.001 µM (active),< 0.001 µM (active),0.0135 µM (active),< 0.001 µM (active),< 0.001 µM (active),< 0.001 µM (active),< 0.001 µM (active),,< 0.001 µM (active),< 0.001 µM (active),< 0.001 µM (active),0.01 µM (active),0.00678 µM (active),< 0.001 µM (active),< 0.001 µM (active),0.00299 µM (active)
CC(C)C1=CC(=O)[C@@](C)(C2[C@H](O)C[C@@]3(C)[C@@H]4CC=C5[C@@H](CC[C@@H](OC6OCC(O)C(O)C6OC6OC(C)C(O)C(O)C6O)C5(C)C)[C@]4(C)C(=O)C[C@]23C)O1 (stereo partly specified),> 100 µM (inactive),,> 100 µM (inactive),> 100 µM (inactive),> 100 µM (inactive),> 100 µM (inactive),,> 100 µM (inactive),,> 100 µM (inactive),> 100 µM (inactive),> 100 µM (inactive),> 100 µM (inactive),> 100 µM (inactive),> 100 µM (inactive),> 100 µM (inactive),> 100 µM (inactive),> 100 µM (inactive),> 100 µM (inactive)
O=C1O/C(=C(/Cl)c2cccc3ccccc23)c2ccccc21,81.1 µM (inactive),> 100 µM (inactive),> 100 µM (inactive),96.8 µM (inactive),7.62 µM (inactive),,,> 100 µM (inactive),> 100 µM (inactive),> 100 µM (inactive),> 100 µM (inactive),> 100 µM (inactive),> 100 µM (inactive),> 100 µM (inactive),> 100 µM (inactive),> 100 µM (inactive),> 100 µM (inactive),> 100 µM (inactive),> 100 µM (inactive)
c1ccc(-c2ccc(-c3cc4ccccc4[nH]3)cc2)cc1,> 100 µM (inactive),> 100 µM (inactive),> 100 µM (inactive),> 100 µM (inactive),> 100 µM (inactive),> 100 µM (inactive),> 100 µM (inactive),> 100 µM (inactive),27.8 µM (inactive),> 100 µM (inactive),> 100 µM (inactive),> 100 µM (inactive),> 100 µM (inactive),> 100 µM (inactive),> 100 µM (inactive),> 100 µM (inactive),> 100 µM (inactive),> 100 µM (inactive),
C[C@@H](CO)C1=C(O)C(=O)c2c(ccc3c2CCCC3(C)C)C1=O,32.2 µM (inactive),,35.5 µM (inactive),14.1 µM (inactive),37.2 µM (inactive),28.2 µM (inactive),59.4 µM (inactive),26.8 µM (inactive),< 0.01 µM (active),37.2 µM (inactive),21.2 µM (inactive),,45.1 µM (inactive),54.8 µM (inactive),37.1 µM (inactive),17.7 µM (inactive),30.8 µM (inactive),23.2 µM (inactive),33 µM (inactive)
Cc1cc(NS(=O)(=O)c2ccc(Nc3c4ccccc4nc4c(C(=O)NCCO)cccc34)cc2)no1,30.5 µM (inactive),,29 µM (inactive),27.7 µM (inactive),23.9 µM (inactive),,27.6 µM (inactive),24.7 µM (inactive),37.9 µM (inactive),25.1 µM (inactive),20.5 µM (inactive),28.6 µM (inactive),35.8 µM (inactive),32.7 µM (inactive),16.8 µM (inactive),29 µM (inactive),30.3 µM (inactive),20.2 µM (inactive),30.1 µM (inactive)
O=C(O)CCCc1ccc2ccc3ccccc3c2c1,66.2 µM (inactive),,83.9 µM (inactive),71.1 µM (inactive),35.6 µM (inactive),78.2 µM (inactive),96.4 µM (inactive),> 100 µM (inactive),,> 100 µM (inactive),72.6 µM (inactive),58.3 µM (inactive),> 100 µM (inactive),> 100 µM (inactive),69 µM (inactive),> 100 µM (inactive),81.8 µM (inactive),38.3 µM (inactive),73.5 µM (inactive)
O=c1cc(-c2ccccc2)[nH]c2cccc(S)c12,1.25 µM (inactive),0.2 µM (active),0.202 µM (active),0.182 µM (active),0.277 µM (active),0.406 µM (active),,0.0299 µM (active),0.201 µM (active),0.341 µM (active),0.288 µM (active),0.301 µM (active),0.0246 µM (active),0.462 µM (active),13.6 µM (inactive),0.857 µM (active),0.564 µM (active),0.155 µM (active),
O=C1NC(=O)/C(=C/c2ccc(S(=O)(=O)N/N=C\C(O)C(O)C(O)C(O)CO)cc2)N1 (stereo unspecified),> 100 µM (inactive),,> 100 µM (inactive),> 100 µM (inactive),> 100 µM (inactive),> 100 µM (inactive),> 100 µM (inactive),> 100 µM (inactive),> 100 µM (inactive),> 100 µM (inactive),> 100 µM (inactive),> 100 µM (inactive),> 100 µM (inactive),> 100 µM (inactive),> 100 µM (inactive),> 100 µM (inactive),> 100 µM (inactive),> 100 µM (inactive),> 100 µM (inactive)
CC1(C)OC[C@@H](O)[C@H](Br)CO1,53.8 µM (inactive),> 100 µM (inactive),> 100 µM (inactive),> 100 µM (inactive),> 100 µM (inactive),> 100 µM (inactive),> 100 µM (inactive),> 100 µM (inactive),> 100 µM (inactive),,,> 100 µM (inactive),> 100 µM (inactive),> 100 µM (inactive),> 100 µM (inactive),> 100 µM (inactive),> 100 µM (inactive),> 100 µM (inactive),> 100 µM (inactive)
Cc1ccc(Nc2nnc(-c3ccc4c(c3)OCO4)o2)c(C)c1,64.4 µM (inactive),64.6 µM (inactive),> 100 µM (inactive),39.2 µM (inactive),> 100 µM (inactive),> 100 µM (inactive),> 100 µM (inactive),> 100 µM (inactive),,> 100 µM (inactive),41.9 µM (inactive),> 100 µM (inactive),> 100 µM (inactive),> 100 µM (inactive),> 100 µM (inactive),> 100 µM (inactive),> 100 µM (inactive),32.8 µM (inactive),39.6 µM (inactive)
Cc1ccc2c(=O)c(C(=O)Nn3c(C)csc3=S)c[nH]c2n1,> 100 µM (inactive),,> 100 µM (inactive),> 100 µM (inactive),> 100 µM (inactive),83 µM (inactive),> 100 µM (inactive),> 100 µM (inactive),> 100 µM (inactive),> 100 µM (inactive),,> 100 µM (inactive),> 100 µM (inactive),> 100 µM (inactive),> 100 µM (inactive),> 100 µM (inactive),> 100 µM (inactive),> 100 µM (inactive),> 100 µM (inactive)
COc1c(-c2nc3ccc(N4CCN(C)CC4)nc3[nH]2)cc(OC)c2c1nc(CCl)n2C,22.4 µM (inactive),4.99 µM (inactive),16.3 µM (inactive),12.2 µM (inactive),14.8 µM (inactive),19.9 µM (inactive),10.8 µM (inactive),16.1 µM (inactive),26.5 µM (inactive),18.4 µM (inactive),22.8 µM (inactive),20.6 µM (inactive),30.5 µM (inactive),20.9 µM (inactive),18.6 µM (inactive),16.9 µM (inactive),26.9 µM (inactive),10.4 µM (inactive),
